Each block holds one compound with its values, some of them ahead of it.
Key:
[1] = test system: weed plants such as Lolium multiflorum, Amaranthus retroflexus, Sinapis alba, Stellaria media and Setaria viridis; experiment: Post-emergence effect on weeds (greenhouse pot test, visual scoring); format: in vivo; conditions: application rate of 500 g or less of active substance per hectare, visual scoring after about 3 to 4 weeks vs untreated controls, read-out: herbicidal action (control)
[2] = test system: weed plants such as Lolium multiflorum, Amaranthus retroflexus, Sinapis alba, Stellaria media and Setaria viridis; experiment: Pre-emergence effect on weeds (greenhouse pot test, visual scoring); format: in vivo; conditions: pre-emergence method, application rate of 1 kg or less of active substance per hectare, visual scoring after 3 to 4 weeks vs untreated controls; read-out: herbicidal action (control)
Text: Seeds or sections of rhizome from monocotyledonous and dicotyledonous weed plants were laid out in sandy loam soil in plastic pots, and covered with soil. The compounds according to the invention, formulated as wettable powders or emulsifiable concentrates, were then applied, in the form of aqueous suspensions or emulsions, at various dosages, onto the surface of the covering soil, at an application rate of 600 to 800 l of water/ha (converted).

[3] = test system: summer wheat of the cultivar 'Triso'; experiment: Plant growth regulation test: culm stabilization of crop plants; format: in vivo; conditions: application rate of 30 to 300 g of active substance per hectare, treated at stage BBCH 31, culm length measured after ears had formed
Outline: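 Wettable-powder formulation with adjuvant (1 l/ha) sprayed at 300 l water/ha onto pot-grown plants at BBCH 31, then kept outdoors. After ear formation culm length was measured; culm stabilization is expressed as percent of untreated control.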

- melting point: 192 °C
Compound: Cc1nn(-c2cccnc2)c(-c2ccccc2)c1CC(=O)O [Example 1-2, 3-methyl-5-phenyl-1-(3-pyridyl)pyrazole-4-acetic acid]
- pest or weed control at up to 500 g/ha [1]: ≥ 70%
- pest or weed control at up to 1000 g/ha [2]: ≥ 70%
- longitudinal growth (culm length) of summer wheat [3]: effectively shortened

- melting point: 172 °C
Compound: O=C(O)Cc1c(-c2ccccc2)nn(-c2cccnc2)c1-c1ccccc1 [Example 1-1, 3,5-diphenyl-1-(3-pyridyl)pyrazole-4-acetic acid]
- pest or weed control at up to 500 g/ha [1]: ≥ 70%
- pest or weed control at up to 1000 g/ha [2]: ≥ 70%
- longitudinal growth (culm length) of summer wheat [3]: effectively shortened

Compound: COC(=O)Cc1c(C)nn(-c2cccnc2)c1-c1cccc(Cl)c1 [Example 2-17, Methyl [5-(3-chlorophenyl)-3-methyl-1-pyridin-3-yl-1H-pyrazol-4-yl]acetate]
- pest or weed control at up to 500 g/ha [1]: ≥ 70%
- pest or weed control at up to 1000 g/ha [2]: ≥ 70%
- longitudinal growth (culm length) of summer wheat [3]: effectively shortened

Compound: C#CCOC(=O)Cc1c(C)nn(-c2cnccc2C)c1-c1ccccc1 [Example 3-76, Prop-2-yn-1-yl [3-methyl-1-(4-methylpyridin-3-yl)-5-phenyl-1H-pyrazol-4-yl]acetate]
- pest or weed control at up to 500 g/ha [1]: ≥ 70%
- pest or weed control at up to 1000 g/ha [2]: ≥ 70%
- longitudinal growth (culm length) of summer wheat [3]: effectively shortened

Compound: COC(=O)Cc1c(C)nn(-c2cnccc2C)c1-c1ccccc1 [Example 2-10, Methyl [3-methyl-1-(4-methylpyridin-3-yl)-5-phenyl-1H-pyrazol-4-yl]acetate]
- pest or weed control at up to 500 g/ha [1]: ≥ 70%
- pest or weed control at up to 1000 g/ha [2]: ≥ 70%
- longitudinal growth (culm length) of summer wheat [3]: effectively shortened

From patent US8252723B2, “Substituted 1-(3-pyridinyl)pyrazol-4-ylacetic acids, processes for their preparation and their use as herbicides and plant growth regulators” (Bayer CropScience AG, priority 2006, dated 2012)
